Assay results: patent US20240139221A1, “TREATMENT OF HPV-INDUCED NEOPLASIA” (priority 2022, published 2024)
Where two headings read alike, the source gives them in different places.

Assays:
[1] = Approximate solubility in solvents at 25° C. and 50° C., visual observation; type: physicochemical; settings: thermodynamic from solid
Experimental: The maximum volume of each solvent added was 1 mL. Approximate solubility was determined by visual observation.
Maximum volume of each solvent added was 1 mL. Approximate solubility was determined by visual observation.

[2] = Solubility in buffers, water and simulated vaginal fluid at 37° C.; settings: for solubility at 0.5 h / solubility at 2 h: 37 °C, thermodynamic from solid; for pH of solution at 2 hrs: 37° C.
Experimental: About 4 mg of Compound I Pattern 1 was added into 2 mL of buffer solution.
(§1) Solubility was tested in five media, pH 3.0 citrate buffer, pH 4.5 acetate buffer, pH 6.8 phosphate buffer, water, simulated vaginal fluid (pH 4.2) at 37° C. for 0.5 h and 2 h.
The salt amount used is equivalent to 10 mg anhydrous free base. […] The obtained clear solutions were analyzed by pH meter for pH, and solubility was determined by observation.
as §1

[3] = Hygroscopicity by DVS at 25° C.; type: physicochemical; settings: DVS 25° C.; for D. (%) Cycle 1: Desorption cycle 1; for D. (%) Cycle 2: Desorption cycle 2; for S. (%) Cycle 1: Sorption cycle 1; for S. (%) Cycle 2: Sorption cycle 2
Experimental: Hygroscopicity was investigated by DVS at 25° C., using the following method: […]

[4] = Behavior under compression, grinding simulation and granulation simulation (XRPD); type: physicochemical
Experimental: About 10 mg of Compound I monofumarate Pattern 1 (Example 7) was compressed for 5 minutes at 10 MPa with a hydraulic press. XRPD characterization was performed to investigate the polymorphic behavior under compression.
About 10 mg of Compound I monofumarate Pattern 1 (Example 7) was ground manually with a mortar and pestle for 5 min. Form transformation and degree of crystallinity was evaluated by XRPD.
Water or ethanol was added drop wise to about 10 mg of Compound I monofumarate Pattern 1 (Example 7) until solids were wetted sufficiently. The samples were ground manually with a mortar and pestle for 3 minutes. Samples are dried under ambient condition for 10 min. Form transformation and degree of crystallinity were evaluated by XRPD.

[5] = Tablet stability study (purity by HPLC); type: physicochemical
Experimental: Tablets were prepared using the excipients and excipient ratios shown in the first column of the following tables. The tablets were then stored under the conditions indicated and periodically sampled and tested for purity by HPLC.

[6] = Bulk stability (accelerated stability, one week; HPLC and XRPD)
Experimental: Bulk stability: Accelerated stability experiments were conducted at 25° C./92% RH and 40° C./75% RH in an open container, 60° C. in a tight container for one week.
Samples were characterized by XRPD and HPLC and inspected for color change.
Accelerated stability experiments were conducted at 25° C./92% RH in an open container, at 40° C./75% RH in an open container, and at 60° C. in a tight container for one week.

[7] = pH 4.2, fassgf or other biorelevant
[8] = ground manually with mortar and pestle for 5 min
[9] = excipients PC (7.5%) + MCC (91.46%) + MgS (1%)
[10] = excipients PC (7.5%) + Mannitol (91.46%) + MgS (1%)
[11] = excipients PEO-15 (25%) + MCC (74%) + MgS (1%)
[12] = excipients PEO-15 (25%) + Mannitol (74%) + MgS (1%)
[13] = 25° C., 92% RH, open container, one week
[14] = 40° C., 75% RH, open container, one week
[15] = 60° C., tight container, one week

SMILES: CCOC(=O)[C@H](C)NP(=O)(COCCn1cnc2c(OC)nc(N)nc21)OCc1ccccc1.O=C(O)/C=C/C(=O)O (mixture of isomers) [Compound I monofumarate, (±)-(2S)-Ethyl-2-((((2-(2-amino-6-methoxy-9H-purin-9-yl)-ethoxy)-methyl)-(benzyloxy)-phosphoryl)-amino)-propionate monofumarate]
- solubility ([1]; 25 °C, organic solvent or mixture, Table 14, ACN, 25° C., read-out: Solubility (mg/mL) 25° C.): 20 to 25 mg/mL
- solubility ([1]; 25 °C, organic solvent or mixture, Table 14, Acetone, 25° C., read-out: Solubility (mg/mL) 25° C.): 50 to 100 mg/mL
- solubility ([1]; 25 °C, organic solvent or mixture, Table 14, DCM, 25° C., read-out: Solubility (mg/mL) 25° C.): < 2 mg/mL
- solubility ([1]; 25 °C, organic solvent or mixture, Table 14, EA, 25° C., read-out: Solubility (mg/mL) 25° C.): < 2 mg/mL
- solubility ([1]; 25 °C, organic solvent or mixture, Table 14, EtOH, 25° C., read-out: Solubility (mg/mL) 25° C.): > 100 mg/mL
- solubility ([1]; 25 °C, organic solvent or mixture, Table 14, Heptanes, 25° C., read-out: Solubility (mg/mL) 25° C.): < 2 mg/mL
- solubility ([1]; 25 °C, organic solvent or mixture, Table 14, IPA, 25° C., read-out: Solubility (mg/mL) 25° C.): 50 to 100 mg/mL
- solubility ([1]; 25 °C, organic solvent or mixture, Table 14, IPAc, 25° C., read-out: Solubility (mg/mL) 25° C.): < 2 mg/mL
- solubility ([1]; 25 °C, organic solvent or mixture, Table 14, MEK, 25° C., read-out: Solubility (mg/mL) 25° C.): 20 to 25 mg/mL
- solubility ([1]; 25 °C, organic solvent or mixture, Table 14, MTBE, 25° C., read-out: Solubility (mg/mL) 25° C.): < 2 mg/mL
- solubility ([1]; 25 °C, organic solvent or mixture, Table 14, MeOH, 25° C., read-out: Solubility (mg/mL) 25° C.): > 100 mg/mL
- solubility ([1]; 25 °C, organic solvent or mixture, Table 14, THF, 25° C., read-out: Solubility (mg/mL) 25° C.): > 100 mg/mL
- solubility ([1]; 25 °C, organic solvent or mixture, Table 14, Toluene, 25° C., read-out: Solubility (mg/mL) 25° C.): < 2 mg/mL
- solubility ([1]; 25 °C, water, Table 14, Water, 25° C., read-out: Solubility (mg/mL) 25° C.): 14 to 17 mg/mL
- solubility ([1]; 50 °C, organic solvent or mixture, Table 14, ACN, 50° C., read-out: Solubility (mg/mL) 50° C.): 20 to 33 mg/mL
- solubility ([1]; 50 °C, organic solvent or mixture, Table 14, Acetone, 50° C., read-out: Solubility (mg/mL) 50° C.): 125 to 167 mg/mL
- solubility ([1]; 50 °C, organic solvent or mixture, Table 14, DCM, 50° C., read-out: Solubility (mg/mL) 50° C.): < 10 mg/mL
- solubility ([1]; 50 °C, organic solvent or mixture, Table 14, EA, 50° C., read-out: Solubility (mg/mL) 50° C.): < 10 mg/mL
- solubility ([1]; 50 °C, organic solvent or mixture, Table 14, EtOH, 50° C., read-out: Solubility (mg/mL) 50° C.): 250 to 500 mg/mL
- solubility ([1]; 50 °C, organic solvent or mixture, Table 14, Heptanes, 50° C., read-out: Solubility (mg/mL) 50° C.): < 10 mg/mL
- solubility ([1]; 50 °C, organic solvent or mixture, Table 14, IPA, 50° C., read-out: Solubility (mg/mL) 50° C.): 71 to 84 mg/mL
- solubility ([1]; 50 °C, organic solvent or mixture, Table 14, IPAc, 50° C., read-out: Solubility (mg/mL) 50° C.): < 10 mg/mL
- solubility ([1]; 50 °C, organic solvent or mixture, Table 14, MEK, 50° C., read-out: Solubility (mg/mL) 50° C.): 22 to 25 mg/mL
- solubility ([1]; 50 °C, organic solvent or mixture, Table 14, MTBE, 50° C., read-out: Solubility (mg/mL) 50° C.): < 10 mg/mL
- solubility ([1]; 50 °C, organic solvent or mixture, Table 14, MeOH, 50° C., read-out: Solubility (mg/mL) 50° C.): > 500 mg/mL
- solubility ([1]; 50 °C, organic solvent or mixture, Table 14, THF, 50° C., read-out: Solubility (mg/mL) 50° C.): 250 to 500 mg/mL
- solubility ([1]; 50 °C, organic solvent or mixture, Table 14, Toluene, 50° C., read-out: Solubility (mg/mL) 50° C.): < 10 mg/mL
- solubility ([1]; 50 °C, water, Table 14, Water, 50° C., read-out: Solubility (mg/mL) 50° C.): 22 to 25 mg/mL
- solubility at 0.5 h ([2]; pH 3, aqueous buffer): > 2 mg/mL
- solubility at 2 h ([2]; pH 3, aqueous buffer): > 2 mg/mL
- solubility at 0.5 h [2, 7]: > 2 mg/mL
- solubility at 2 h [2, 7]: > 2 mg/mL
- solubility at 0.5 h ([2]; pH 4.5, aqueous buffer): > 2 mg/mL
- solubility at 2 h ([2]; pH 4.5, aqueous buffer): > 2 mg/mL
- solubility at 0.5 h ([2]; pH 6.8, aqueous buffer): > 2 mg/mL
- solubility at 2 h ([2]; pH 6.8, aqueous buffer): > 2 mg/mL
- solubility at 0.5 h ([2]; water): > 2 mg/mL
- solubility at 2 h ([2]; water): > 2 mg/mL
- pH of solution at 2 hrs ([2]; Simulated vaginal fluid (pH adjusted with 0.2N NaOH)): (5.39)
- pH of solution at 2 hrs ([2]; Water): (3.11)
- pH of solution at 2 hrs ([2]; pH 3.0 100 mM citrate buffer): (3.05)
- pH of solution at 2 hrs ([2]; pH 4.5 50 mM acetate buffer): (4.36)
- pH of solution at 2 hrs ([2]; pH 6.8 50 mM phosphate buffer): (6.49)
- D. (%) Cycle 1 ([3]; 0% RH): 0.49%
- D. (%) Cycle 1 ([3]; 10% RH): 0.62%
- D. (%) Cycle 1 ([3]; 20% RH): 0.71%
- D. (%) Cycle 1 ([3]; 30% RH): 0.81%
- D. (%) Cycle 1 ([3]; 40% RH): 0.93%
- D. (%) Cycle 2 ([3]; 0% RH): 0.09%
- D. (%) Cycle 2 ([3]; 10% RH): 0.15%
- D. (%) Cycle 2 ([3]; 20% RH): 0.35%
- D. (%) Cycle 2 ([3]; 30% RH): 0.47%
- D. (%) Cycle 2 ([3]; 40% RH): 0.56%
- D. (%) Cycle 2 ([3]; 50% RH): 0.67%
- D. (%) Cycle 2 ([3]; 60% RH): 0.85%
- D. (%) Cycle 2 ([3]; 70% RH): 1.04%
- D. (%) Cycle 2 ([3]; 80% RH): 1.30%
- D. (%) Cycle 2 ([3]; 90% RH): 1.84%
- D. (%) Cycle 2 ([3]; 95% RH): 2.89%
- S. (%) Cycle 1 ([3]; 0% RH): 0.49%
- S. (%) Cycle 1 ([3]; 10% RH): 0.56%
- S. (%) Cycle 1 ([3]; 20% RH): 0.66%
- S. (%) Cycle 1 ([3]; 30% RH): 0.76%
- S. (%) Cycle 1 ([3]; 40% RH): 0.86%
- S. (%) Cycle 1 ([3]; 50% RH): 0.71%
- S. (%) Cycle 1 ([3]; 60% RH): 0.85%
- S. (%) Cycle 1 ([3]; 70% RH): 1.02%
- S. (%) Cycle 1 ([3]; 80% RH): 1.27%
- S. (%) Cycle 1 ([3]; 90% RH): 1.78%
- S. (%) Cycle 1 ([3]; 95% RH): 2.89%
- S. (%) Cycle 2 ([3]; 0% RH): 0.09%
- S. (%) Cycle 2 ([3]; 10% RH): 0.18%
- S. (%) Cycle 2 ([3]; 20% RH): 0.27%
- S. (%) Cycle 2 ([3]; 30% RH): 0.37%
- S. (%) Cycle 2 ([3]; 40% RH): 0.47%
- water uptake ([3]; up to 95% RH): about 2.9%
- degree of crystallinity on grinding (XRPD) [4, 8]: crystallinity slightly decreased
- form transformation on grinding (XRPD) [4, 8]: no form change was observed
- form transformation on granulation simulation (XRPD) ([4]; wetted with water or ethanol, ground 3 minutes, dried 10 min): neither in ethanol, nor in water form change was observed
- purity by HPLC, 0 months [5, 9]: 99.81
- purity by HPLC, 1 month 25 C./60% RH [5, 9]: 98.04
- purity by HPLC, 1 month 40 C./75% RH [5, 9]: 84.92
- purity by HPLC, 0 months [5, 10]: 99.61
- purity by HPLC, 1 month 25 C./60% RH [5, 10]: 98.77
- purity by HPLC, 1 month 40 C./75% RH [5, 10]: 85.26
- purity by HPLC, 0 months [5, 11]: 99.03
- purity by HPLC, 1 month 25 C./60% RH [5, 11]: 97.76
- purity by HPLC, 1 month 40 C./75% RH [5, 11]: 83.13
- purity by HPLC, 0 months [5, 12]: 97.95
- purity by HPLC, 1 month 25 C./60% RH [5, 12]: 97.04
- purity by HPLC, 1 month 40 C./75% RH [5, 12]: 87.09
- XRPD after storage ([6]; 25° C., 84% RH, open container, 2 days): No change
- HPLC (purity) after storage [6, 13]: 98.2%
- XRPD after storage [6, 13]: No change
- HPLC (purity) after storage [6, 14]: 95.6%
- XRPD after storage [6, 14]: No change
- HPLC (purity) after storage [6, 15]: 95.5%
- XRPD after storage [6, 15]: No change
- HPLC (purity), Initial ([6]; initial, before storage): 98.6%
